Source: EP4810052A2, “HCRHR2 SELECTIVE POLYPEPTIDES” (Gubra A/S, priority 2023, dated 2026)
Where two headings read alike, the source gives them in different places. Starred links: 1 amine or outer side, 2 acyl side, 3 side chain; linkers in the order of their positions; H or OH if unused. Non-standard residues stand in square brackets, D forms with d. Residues, ends and D or L forms follow the SMILES beside them. Groups on a side chain read outwards from the residue. *: point of attachment. C20 diacid = O=C(O)CCCCCCCCCCCCCCCCCCC(=O)*; γGlu = O=C(O)[C@H](CCC(=O)[*:2])N[*:1]; NMeI = CC[C@H](C)[C@H](NC)C(=O)O; Nle = CCCC[C@H](N)C(=O)O; AEEA = NCCOCCOCC(=O)O; Aib = CC(C)(N)C(=O)O

Columns and labels:
hCRHR1 = molecular target: T1, hCRHR1 (Homo sapiens, UniProt P34998); test: HTRF cAMP assay, determination of hCRHR1 potency (peptide libraries 5 conc., purified peptides 11 conc.); type: cell-based; conditions: read-out: hCRHR1 pEC50 (converted)
T1 sequence (P34998 24-415): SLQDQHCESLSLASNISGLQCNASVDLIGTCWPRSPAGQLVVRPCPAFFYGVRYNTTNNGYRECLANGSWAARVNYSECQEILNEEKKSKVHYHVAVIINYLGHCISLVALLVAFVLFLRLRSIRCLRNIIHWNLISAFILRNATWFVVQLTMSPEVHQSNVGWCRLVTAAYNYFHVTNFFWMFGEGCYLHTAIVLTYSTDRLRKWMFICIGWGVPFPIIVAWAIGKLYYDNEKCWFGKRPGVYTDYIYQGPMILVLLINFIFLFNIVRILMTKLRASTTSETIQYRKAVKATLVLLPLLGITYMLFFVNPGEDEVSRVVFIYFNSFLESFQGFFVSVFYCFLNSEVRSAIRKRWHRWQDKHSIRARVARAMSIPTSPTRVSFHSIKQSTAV
In short: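 CHO-K1 cells stably expressing human CRHR1, thawed from frozen stocks just before use, were stimulated in suspension with agonist peptides. cAMP was measured by HTRF competitive immunoassay (cryptate anti-cAMP antibody vs d2-cAMP).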

hCRHR2 = molecular target: T2, hCRHR2 (Homo sapiens, UniProt Q13324); test: HTRF cAMP assay, determination of hCRHR2 potency (peptide libraries 5 conc., purified peptides 11 conc.); type: cell-based; conditions: read-out: hCRHR2 pEC50 (converted)
T2 sequence (Q13324 1-411): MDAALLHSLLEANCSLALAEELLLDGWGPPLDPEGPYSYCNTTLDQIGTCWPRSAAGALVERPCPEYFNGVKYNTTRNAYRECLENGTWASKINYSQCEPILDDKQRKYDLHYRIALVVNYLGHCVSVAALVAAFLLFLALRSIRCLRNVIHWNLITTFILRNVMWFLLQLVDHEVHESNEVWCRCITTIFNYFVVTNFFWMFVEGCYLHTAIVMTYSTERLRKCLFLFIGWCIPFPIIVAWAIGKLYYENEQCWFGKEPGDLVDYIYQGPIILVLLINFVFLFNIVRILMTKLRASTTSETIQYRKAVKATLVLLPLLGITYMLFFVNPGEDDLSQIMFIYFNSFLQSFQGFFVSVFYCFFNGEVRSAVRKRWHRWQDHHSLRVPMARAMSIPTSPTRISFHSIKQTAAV
In short: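 Potency was read as cAMP accumulation in a stable CHO-K1 line expressing human CRHR2, used in suspension right after thawing. Detection relied on energy transfer from antibody-bound cryptate to d2-cAMP.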

[1] = Table 3, matched molecular pairs X^38 L vs Nle, peptide library of Example 4
[2] = Table 4, library peptides having X^38 = Nle

| SMILES | EC50 (hCRHR1; [1]) | EC50 (hCRHR2; [1]) | EC50 (hCRHR1; [2]) | EC50 (hCRHR2; [2]) |
| --- | --- | --- | --- | --- |
| CCCC[C@H](NC(=O)[C@@H](NC(=O)[C@H](CCC(=O)O)NC(=O)[C@H](C)NC(=O)[C@H](CC(N)=O)NC(=O)[C@@H](NC(=O)[C@H](CCCCNC(=O)COCCOCCNC(=O)COCCOCCNC(=O)CC[C@H](NC(=O)CC[C@H](NC(=O)CCCCCCCCCCCCCCCCCCC(=O)O)C(=O)O)C(=O)O)NC(=O)[C@H](C)NC(=O)[C@H](CCC(N)=O)NC(=O)[C@H](CCC(N)=O)NC(=O)[C@H](CCCNC(=N)N)NC(=O)[C@H](C)NC(=O)[C@H](C)NC(=O)[C@H](CCCNC(=N)N)NC(=O)[C@H](C)NC(=O)[C@H](CCCNC(=N)N)NC(=O)[C@H](C)NC(=O)[C@H](CCC(N)=O)NC(=O)[C@H](CCC(=O)O)NC(=O)[C@H](CC(C)C)NC(=O)[C@H](CC(C)C)NC(=O)[C@@H](NC(=O)[C@H](CCC(N)=O)NC(=O)[C@H](CC(C)C)NC(=O)[C@H](CC(C)C)NC(=O)CNC(=O)[C@@H](NC(=O)[C@@H]1CCCN1C(=O)[C@@H](NC(=O)[C@H](CC(=O)O)NC(=O)[C@H](CC(C)C)NC(=O)[C@H](CO)NC(=O)[C@H](CC(C)C)NC(=O)[C@@H](NC(=O)[C@@H](N)[C@@H](C)CC)C(C)C)C(C)C)[C@@H](C)CC)[C@@H](C)CC)[C@@H](C)O)[C@@H](C)CC)C(=O)N[C@@H](C)C(=O)N[C@@H](CCC(=O)O)C(=O)N[C@H](C(N)=O)[C@@H](C)CC [SEQ ID NO: 28] (H-IVLSLDVPIGLLQILLEQARARAARQQAK([AEEA-AEEA-γGlu-γGlu-C20 diacid])TNAEI[Nle]AEI-NH2) | 1260 nM | 0.158 nM | – | – |
| CCCC[C@H](NC(=O)[C@@H](NC(=O)[C@H](CCC(=O)O)NC(=O)C(C)(C)NC(=O)[C@H](CC(N)=O)NC(=O)[C@@H](NC(=O)[C@H](CCCCNC(=O)COCCOCCNC(=O)COCCOCCNC(=O)CC[C@H](NC(=O)CC[C@H](NC(=O)CCCCCCCCCCCCCCCCCCC(=O)O)C(=O)O)C(=O)O)NC(=O)[C@H](C)NC(=O)[C@H](CCC(N)=O)NC(=O)[C@H](CCC(=O)O)NC(=O)[C@H](CCCNC(=N)N)NC(=O)[C@H](C)NC(=O)[C@H](C)NC(=O)[C@H](CCCNC(=N)N)NC(=O)[C@H](C)NC(=O)[C@H](CCCNC(=N)N)NC(=O)[C@H](C)NC(=O)[C@H](CCC(N)=O)NC(=O)[C@H](C)NC(=O)[C@H](CC(C)C)NC(=O)[C@H](CC(C)C)NC(=O)[C@@H](NC(=O)[C@H](CCC(N)=O)NC(=O)[C@H](CC(C)C)NC(=O)[C@H](CC(C)C)NC(=O)CNC(=O)[C@@H](NC(=O)[C@@H]1CCCN1C(=O)[C@@H](NC(=O)[C@H](CC(=O)O)NC(=O)[C@H](CC(C)C)NC(=O)[C@H](CO)NC(=O)[C@H](CC(C)C)NC(=O)[C@@H](NC(=O)[C@@H](NC)[C@@H](C)CC)C(C)C)C(C)C)[C@@H](C)CC)[C@@H](C)CC)[C@@H](C)O)[C@@H](C)CC)C(=O)N[C@@H](C)C(=O)N[C@@H](CCC(=O)O)C(=O)N[C@H](C(N)=O)C(C)C [compound 196] (H-[NMeI]VLSLDVPIGLLQILLAQARARAAREQAK([AEEA-AEEA-γGlu-γGlu-C20 diacid])TN[Aib]EI[Nle]AEV-NH2) | – | – | 1000 nM | 0.0316 nM |
| CCCC[C@H](NC(=O)[C@@H](NC(=O)[C@H](CCC(=O)O)NC(=O)[C@H](C)NC(=O)[C@H](CC(N)=O)NC(=O)[C@@H](NC(=O)[C@H](CCCCNC(=O)COCCOCCNC(=O)COCCOCCNC(=O)CC[C@H](NC(=O)CC[C@H](NC(=O)CCCCCCCCCCCCCCCCCCC(=O)O)C(=O)O)C(=O)O)NC(=O)[C@H](C)NC(=O)[C@H](CCC(N)=O)NC(=O)[C@H](CCC(N)=O)NC(=O)[C@H](CCCNC(=N)N)NC(=O)[C@H](CCC(N)=O)NC(=O)[C@H](C)NC(=O)[C@H](CCCNC(=N)N)NC(=O)[C@H](C)NC(=O)[C@H](CCCNC(=N)N)NC(=O)[C@H](C)NC(=O)[C@H](CCC(N)=O)NC(=O)[C@H](CCC(=O)O)NC(=O)[C@H](CC(C)C)NC(=O)[C@H](CC(C)C)NC(=O)[C@@H](NC(=O)[C@H](CCC(N)=O)NC(=O)[C@H](CC(C)C)NC(=O)[C@H](CC(C)C)NC(=O)CNC(=O)[C@@H](NC(=O)[C@@H]1CCCN1C(=O)[C@@H](NC(=O)[C@H](CC(=O)O)NC(=O)[C@H](CC(C)C)NC(=O)[C@H](CO)NC(=O)[C@H](CC(C)C)NC(=O)[C@@H](NC(=O)[C@@H](N)[C@@H](C)CC)C(C)C)C(C)C)[C@@H](C)CC)[C@@H](C)CC)[C@@H](C)O)[C@@H](C)CC)C(=O)N[C@@H](C)C(=O)N[C@@H](CCC(=O)O)C(=O)N[C@H](C(N)=O)C(C)C [SEQ ID NO: 47] (H-IVLSLDVPIGLLQILLEQARARAQRQQAK([AEEA-AEEA-γGlu-γGlu-C20 diacid])TNAEI[Nle]AEV-NH2) | 63.1 nM | 0.2 nM | – | – |
| CC[C@H](C)[C@H](N)C(=O)N[C@H](C(=O)N[C@@H](CC(C)C)C(=O)N[C@@H](CO)C(=O)N[C@@H](CC(C)C)C(=O)N[C@@H](CC(=O)O)C(=O)N[C@H](C(=O)N1CCC[C@H]1C(=O)N[C@H](C(=O)NCC(=O)N[C@@H](CC(C)C)C(=O)N[C@@H](CC(C)C)C(=O)N[C@@H](CCC(N)=O)C(=O)N[C@H](C(=O)N[C@@H](CC(C)C)C(=O)N[C@@H](CC(C)C)C(=O)N[C@@H](CCC(=O)O)C(=O)N[C@@H](CCC(N)=O)C(=O)N[C@@H](C)C(=O)N[C@@H](CCCNC(=N)N)C(=O)N[C@@H](C)C(=O)N[C@@H](CCCNC(=N)N)C(=O)N[C@@H](CO)C(=O)N[C@@H](C)C(=O)N[C@@H](CCCNC(=N)N)C(=O)N[C@@H](CCC(=O)O)C(=O)N[C@@H](CCC(N)=O)C(=O)N[C@@H](C)C(=O)N[C@@H](CCCCNC(=O)COCCOCCNC(=O)COCCOCCNC(=O)CC[C@H](NC(=O)CC[C@H](NC(=O)CCCCCCCCCCCCCCCCCCC(=O)O)C(=O)O)C(=O)O)C(=O)N[C@H](C(=O)N[C@@H](CC(N)=O)C(=O)N[C@@H](C)C(=O)N[C@@H](CCC(=O)O)C(=O)N[C@H](C(=O)N[C@@H](CC(C)C)C(=O)N[C@@H](C)C(=O)N[C@@H](CCC(=O)O)C(=O)N[C@H](C(N)=O)[C@@H](C)CC)[C@@H](C)CC)[C@@H](C)O)[C@@H](C)CC)[C@@H](C)CC)C(C)C)C(C)C [SEQ ID NO: 35] (H-IVLSLDVPIGLLQILLEQARARSAREQAK([AEEA-AEEA-γGlu-γGlu-C20 diacid])TNAEILAEI-NH2) | 79400 nM | 0.501 nM | – | – |
| CC[C@H](C)[C@H](N)C(=O)N[C@H](C(=O)N[C@@H](CC(C)C)C(=O)N[C@@H](CO)C(=O)N[C@@H](CC(C)C)C(=O)N[C@@H](CC(=O)O)C(=O)N[C@H](C(=O)N1CCC[C@H]1C(=O)N[C@H](C(=O)NCC(=O)N[C@@H](CC(C)C)C(=O)N[C@@H](CC(C)C)C(=O)N[C@@H](CCC(N)=O)C(=O)N[C@H](C(=O)N[C@@H](CC(C)C)C(=O)N[C@@H](CC(C)C)C(=O)N[C@@H](CCC(=O)O)C(=O)N[C@@H](CCC(N)=O)C(=O)N[C@@H](C)C(=O)N[C@@H](CCCNC(=N)N)C(=O)N[C@@H](C)C(=O)N[C@@H](CCCNC(=N)N)C(=O)N[C@@H](C)C(=O)N[C@@H](C)C(=O)N[C@@H](CCCNC(=N)N)C(=O)N[C@@H](CCC(N)=O)C(=O)N[C@@H](CCC(N)=O)C(=O)N[C@@H](C)C(=O)N[C@@H](CCCCNC(=O)COCCOCCNC(=O)COCCOCCNC(=O)CC[C@H](NC(=O)CC[C@H](NC(=O)CCCCCCCCCCCCCCCCCCC(=O)O)C(=O)O)C(=O)O)C(=O)N[C@H](C(=O)N[C@@H](CC(N)=O)C(=O)N[C@@H](C)C(=O)N[C@@H](CCC(=O)O)C(=O)N[C@H](C(=O)N[C@@H](CC(C)C)C(=O)N[C@@H](C)C(=O)N[C@@H](CCC(=O)O)C(=O)N[C@H](C(N)=O)[C@@H](C)CC)[C@@H](C)CC)[C@@H](C)O)[C@@H](C)CC)[C@@H](C)CC)C(C)C)C(C)C [SEQ ID NO: 27] (H-IVLSLDVPIGLLQILLEQARARAARQQAK([AEEA-AEEA-γGlu-γGlu-C20 diacid])TNAEILAEI-NH2) | 63100 nM | 0.316 nM | – | – |
